Earlier results on 1 substance are cited in patent publication US20200155636A1, “Medicament and Beverage for Improving Joint and Bone Diseases” (priority 2017, published 2020).

The conditions of this data set: oral application.

In the case of hyaluronic acid, the “stability against gastric acid” value is “survives the gastric acid”. For the same substance, the absorption result (small intestine) is “absorbed in the small intestine”.
